# In patent US5639778A, “Indoletetralins having dopaminergic activity” (Pharmacia & Upjohn Company, priority 1995, dated 1997):
# pKi: −log10 of the molar value. Read-outs that look alike come from different tables or passages of the source.
# Assays:
# [1] = tested on: DOPA accumulation in the striatum (DA synthesis rate); experiment: DOPA accumulation in striatum of reserpine-pretreated rats; format: in vivo, rat; conditions: for ED50: Rattus norvegicus, sc, 0.5 h, read-out: DOPA ED50 Stri.
# Procedure: (§1) Effects on DOPA and 5-HTP accumulation in reserpine -
# (§2) The animals were pretreated with reserpine (5 mg/kg, s.c.) 18 hours before the experiment. Test drugs were administered and immediately thereafter the motron activity was measured in photocell motility boxes. The rats were injected with the decarboxylase inhibitor NSD 1015 (100 mg/kg, s.c.) and killed 30 minutes later. The accumulation of DOPA in the striatum, limbic and […] and that of 5-HTP in the limbic forebrain was taken as a measure of the DA and 5-HT synthesis rates, respectively. The accumulation of DOPA in the cortex area was taken as a measure of NA synthesis rate. […] The same theory is valid for 5-HT receptor agonists and antagonists. Dose-response curves were constructed for each compound (4-5 dose levels, n=4) and the half-maximal decrease (ED50) was calculated.
# (§3) P=partial decrease; maximal decrease was not reached at the highest dose (shown in brackets). The % decrease from control is also shown. NT=not tested. [drawing 4]
# [2] = molecular target: T1, dopamine D2 receptor (D2CHO cells) (Homo sapiens, UniProt P14416); experiment: binding experiments using D2CHO cells and Raclopride as the labeled ligand
# T1 construct: expressed in transfected cells; host or cells: CHO cells (D2CHO)
# Description: *Data from binding experiments using D2CHO cells and Raclopride as the […]
# [3] = molecular target: T2, serotonin 5-HT1A receptor (Rattus norvegicus, UniProt P19327); experiment: in vitro affinity for brain serotonin 5-HT1A receptor sites, 8-OH-DPAT; conditions: non-pretreated, read-out: In vitro binding Ki 5HT1A
# T2 construct: from tissue
# T2 sequence (P19327 1-422): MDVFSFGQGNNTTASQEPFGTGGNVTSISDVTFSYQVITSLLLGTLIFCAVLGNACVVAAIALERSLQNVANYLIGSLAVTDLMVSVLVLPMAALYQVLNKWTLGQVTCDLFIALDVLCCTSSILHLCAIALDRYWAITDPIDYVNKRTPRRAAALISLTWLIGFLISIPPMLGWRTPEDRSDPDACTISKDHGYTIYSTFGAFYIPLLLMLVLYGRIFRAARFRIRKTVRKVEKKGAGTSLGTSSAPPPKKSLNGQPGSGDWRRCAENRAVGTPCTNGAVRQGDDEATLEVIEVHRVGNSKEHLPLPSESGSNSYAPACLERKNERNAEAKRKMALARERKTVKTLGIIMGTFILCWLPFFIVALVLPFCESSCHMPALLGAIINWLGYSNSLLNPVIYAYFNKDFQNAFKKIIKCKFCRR
# Description: (§4) pretreated rats. Also shown are the in vitro affinities for brain
# (§5) dopamine (D2, Spiperone) and serotonin (5-HT1A, 8-OH-DPAT)
# (§6) receptor sites in non-pretreated rats.
# [4] = tested on: 5-HTP accumulation in the limbic forebrain (5-HT synthesis rate); experiment: 5-HTP accumulation in limbic forebrain of reserpine-pretreated rats; format: in vivo, rat
# Procedure: as §1, §2, §3
# [5] = tested on: DOPA accumulation in the cortex (NA synthesis rate); experiment: DOPA accumulation in cortex of reserpine-pretreated rats; format: in vivo, rat; conditions: for DOPA ED50 Cortex. (I/P symbol): s.c., number in brackets = highest dose, μmol/kg; for ED50: Rattus norvegicus, sc, 0.5 h, read-out: DOPA ED50 Cortex. (I/P symbol)
# Procedure: as §1, §2, §3
# dopamine D2 receptor = molecular target: T3, dopamine D2 receptor (Rattus norvegicus, UniProt P61169); experiment: in vitro affinity for brain dopamine D2 receptor sites, Spiperone; format: binding; conditions: non-pretreated
# T3 construct: from tissue
# Description: as §4, §5, §6
# [6] = D2CHO cells, Raclopride as labeled ligand, read-out: In vitro binding Ki D2 (marked *)
# [7] = Rattus norvegicus, sc, 0.5 h, read-out: 5-HTP ED50 Limbic (I/P symbol)
# [8] = read-out: In vitro binding Ki D2-spip.
# T1 sequence (P14416 whole entry): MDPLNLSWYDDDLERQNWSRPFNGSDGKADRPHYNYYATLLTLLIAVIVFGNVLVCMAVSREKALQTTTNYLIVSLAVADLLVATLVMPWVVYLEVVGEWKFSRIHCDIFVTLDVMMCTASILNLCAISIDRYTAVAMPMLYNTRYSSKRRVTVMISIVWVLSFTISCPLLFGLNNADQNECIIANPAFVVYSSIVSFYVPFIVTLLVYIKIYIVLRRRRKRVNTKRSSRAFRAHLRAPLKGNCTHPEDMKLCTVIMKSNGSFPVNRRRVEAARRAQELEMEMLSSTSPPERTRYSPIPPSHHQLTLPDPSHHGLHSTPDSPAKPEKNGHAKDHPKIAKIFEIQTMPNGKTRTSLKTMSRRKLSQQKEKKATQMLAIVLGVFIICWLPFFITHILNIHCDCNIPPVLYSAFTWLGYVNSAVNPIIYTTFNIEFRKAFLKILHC
# T3 sequence (P61169 whole entry): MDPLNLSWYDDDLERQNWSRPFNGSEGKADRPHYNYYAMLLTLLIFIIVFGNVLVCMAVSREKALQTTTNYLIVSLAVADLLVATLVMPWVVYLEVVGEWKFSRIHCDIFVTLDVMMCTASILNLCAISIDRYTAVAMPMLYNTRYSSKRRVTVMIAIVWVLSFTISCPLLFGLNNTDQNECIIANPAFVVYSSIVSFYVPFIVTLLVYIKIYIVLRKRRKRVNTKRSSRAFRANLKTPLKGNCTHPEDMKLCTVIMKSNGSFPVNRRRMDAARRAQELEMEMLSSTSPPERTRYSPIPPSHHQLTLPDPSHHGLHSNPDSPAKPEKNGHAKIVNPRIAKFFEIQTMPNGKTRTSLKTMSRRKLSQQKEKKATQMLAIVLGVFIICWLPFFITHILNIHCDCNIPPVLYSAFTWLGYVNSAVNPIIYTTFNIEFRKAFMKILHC
structure (smiles),measurement,setting,value
"CCCN(CCC)[C@H]1CCc2c(ccc3[nH]ccc23)[C@H]1C (relative stereo) [Example 15, cis-(6-Methyl-6,7,8,9-tetrahydro-3H-benzo[e]-indol-7-yl)-dipropylamine]",DOPA Stri. % decrease from control,[1]; highest dose 50 μmol/kg s.c.,35%
same,pKi,[2]; [6],6.79
same,pKi,[3],6.91
same,5-HTP Limbic % decrease from control,[4]; highest dose 50 μmol/kg s.c.,52%
same,DOPA Cortex. % decrease from control,[5]; highest dose 50 μmol/kg s.c.,88%
"CCCN(CCC)[C@H]1CCc2c(ccc3[nH]cc(C=O)c23)[C@H]1C (relative stereo) [Example 16, cis-7-Dipropylamino-6-methyl-6,7,8,9-tetrahydro-3H-benzo[e]-indole-1-carbaldehyde]",DOPA Stri. % decrease from control,[1]; highest dose 50 μmol/kg s.c.,36%
same,pKi,[2]; [6],6.03
same,ED50,[4]; [7],50 µmol/kg
same,DOPA ED50 Cortex. (I/P symbol),[5],I(50)
"CCCN(CCC)C1CCc2c(ccc3[nH]ccc23)C1 (single isomer, unassigned; (+)) [7A(+), (+)-Dipropyl-(6,7,8,9-tetrahydro-benzo[e]indol-7-yl)-amine, reference compound]",ED50,[1],0.12 µmol/kg
same,pKi,dopamine D2 receptor; In vitro binding Ki D2-spip.,7.46
same,5-HTP Limbic % decrease from control,[4]; highest dose 12.5 μmol/kg s.c.,80%
same,DOPA Cortex. % decrease from control,[5]; highest dose 12.5 μmol/kg s.c.,67%
"CCCN(CCC)C1CCc2c(ccc3[nH]cc(C=O)c23)C1 (single isomer, unassigned; (+)) [8(+), (+)-7-Dipropylamino-6,7,8,9-tetrahydro-3H-benzo[e]indole-1-carbaldehyde]",DOPA Stri. % decrease from control,[1]; highest dose 0.2 μmol/kg s.c.,60%
same,ED50,[4]; [7],0.2 µmol/kg
same,ED50,[5],0.2 µmol/kg
"CCCN(CCC)C1CCc2c(ccc3[nH]ccc23)C1 (single isomer, unassigned; (-)) [7A(-), (-)-Dipropyl-(6,7,8,9-tetrahydro-benzo[e]indol-7-yl)-amine, reference compound]",DOPA Stri. % decrease from control,[1]; highest dose 25 μmol/kg s.c.,31%
same,pKi,[3],5.84
same,pKi,dopamine D2 receptor; [8],6.59
same,5-HTP Limbic % decrease from control,[4]; highest dose 25 μmol/kg s.c.,68%
same,DOPA Cortex. % decrease from control,[5]; highest dose 25 μmol/kg s.c.,73%
"CCCN(CCC)C1CCc2c(ccc3c2NC(=O)C3=O)C1 (stereo not drawn) [Example 1, 7-Di-n-propylamino-6,7,8,9-tetrahydro-1H-benzo[g]indole-2,3-dione]",DOPA Stri. % decrease from control,[1]; highest dose 50 μmol/kg s.c.,78%
same,pKi,[2]; [6],5.45
same,pKi,[3],5.00
same,highest dose tested (ED50 not reached),"[4]; Rattus norvegicus, sc, 0.5 h, s.c., number in brackets = highest dose, μmol/kg, read-out: 5-HTP ED50 Limbic (I/P symbol)",50 µmol/kg
"CCCN(CCC)C1CCc2c(ccc3cc[nH]c23)C1 (stereo not drawn) [Example 2, Di-n-propyl-(6,7,8,9-tetrahydro-1H-benzo[g]indol-7yl)amine]",DOPA Stri. % decrease from control,[1]; highest dose 50 μmol/kg s.c.,48%
same,pKi,[3],5.95
same,pKi,dopamine D2 receptor; [8],6.49
same,5-HTP Limbic % decrease from control,[4]; highest dose 50 μmol/kg s.c.,61%
"CCCN(CCC)C1CCc2c(ccc3c2NC(=O)C3)C1 (stereo not drawn) [Example 4, 7-Di-n-propylamino-1,3,6,7,8,9-hexahydro-1H-benzo[g]indole-2-one]",pKi,[3],4.60
same,pKi,dopamine D2 receptor; [8],4.80
same,ED50,"[4]; Rattus norvegicus, sc, 0.5 h, s.c., half-maximal decrease, reserpine-pretreated rats, read-out: 5-HTP ED50 Limbic",5.8 µmol/kg
"CCCN(CCC)C1COc2c(ccc3cc[nH]c23)C1 (stereo not drawn) [Example 5, Di-n-propyl-(1,6,7,8-tetrahydro-9-oxa-1-azacyclopenta[a]naphthylenee-7-yl)amine]",DOPA Stri. % decrease from control,[1]; highest dose 3.1 μmol/kg s.c.,26%
same,pKi,[3],6.75
same,pKi,dopamine D2 receptor; [8],6.57
same,5-HTP Limbic % decrease from control,[4]; highest dose 50 μmol/kg s.c.,62%
same,DOPA ED50 Cortex. (I/P symbol),[5],I(50)
"CCCN(CCC)C1CCc2cc3[nH]ccc3cc2C1 (stereo not drawn) [Example 7, Di-n-propyl-(5,6,7,8-tetrahydro-1H-benzo[f]indol-6-yl)amine]",DOPA Stri. % decrease from control,[1]; highest dose 50 μmol/kg s.c.,48%
same,pKi,[3],6.47
same,pKi,dopamine D2 receptor; [8],5.38
same,ED50,[4]; [7],50 µmol/kg
"CCCN(CCC)C1CCc2c(ccc3[nH]ccc23)C1 (stereo not drawn) [Example 7A, Di-n-propyl-(6,7,8,9-tetrahydro-3H-benzo[e]indol-7-yl)amine, reference compound]",ED50,[1],0.3 µmol/kg
same,pKi,[3],6.30
same,pKi,dopamine D2 receptor; In vitro binding Ki D2-spip.,7.30
same,5-HTP Limbic % decrease from control,[4]; highest dose 3.1 μmol/kg s.c.,72%
same,ED50,[5],12.5 µmol/kg
"CCCN(CCC)C1CCc2c(ccc3[nH]cc(C=O)c23)C1 (stereo not drawn) [Example 8, 7-Di-n-propylamino-6,7,8,9-tetrahydro-3H-benzo [e]indole-1-carbaldehyde]",ED50,[1],0.015 µmol/kg
same,pKi,[3],5.59
same,pKi,dopamine D2 receptor; In vitro binding Ki D2-spip.,7.80
same,ED50,[4]; [7],50 µmol/kg
same,DOPA Cortex. % decrease from control,[5]; highest dose 0.2 μmol/kg s.c.,57%
"CCCN(CCC)C1CCc2cc3[nH]cc(C=O)c3cc2C1 (stereo not drawn) [Example 9, 6-Di-n-propylamino-5,6,7,8-tetrahydro-1H-benzo [f]indole-3-carbaldehyde]",DOPA Stri. % decrease from control,[1]; highest dose 12.5 μmol/kg s.c.,37%
same,pKi,[2]; [6],6.56
same,ED50,[4]; [7],12.5 µmol/kg
same,DOPA Cortex. % decrease from control,[5]; highest dose 12.5 μmol/kg s.c.,85%
"CCCN(CCC)C1CCc2c(ccc3[nH]cc(C#N)c23)C1 (stereo not drawn) [Example 10, 7-Di-n-propylamino-6,7,8,9-tetrahydro-3H-benzo[e]indole-1-carbonitrile]",ED50,[1],0.004 µmol/kg
same,pKi,[2],8.00
same,ED50,[4]; [7],3.1 µmol/kg
same,DOPA Cortex. % decrease from control,[5]; highest dose 3.1 μmol/kg s.c.,79%
"CCCN(CCC)C1CCc2c(ccc3ccoc23)C1 (stereo not drawn) [Example 17, Di-n-propyl-(6,7,8,9-tetrahydronaphtho[1,2-b]furan-7-yl)-amine]",ED50,[1],1 µmol/kg
same,pKi,[2],6.69
same,ED50,[4]; [7],33.3 µmol/kg
same,DOPA Cortex. % decrease from control,[5]; highest dose 33.3 μmol/kg s.c.,79%
